The source made the active and inactive calls.
Key:
[1] = blockers of CAL PDZ–TMR peptide complex – biochemical, fluorescence polarization, untagged CAL PDZ, cherry-pick, set 2, dose response (AID 602254); format: functional
[2] = Luminescence Cell-Based Dose Confirmation HTS to Identify Inhibitors of Platelet Dense Granule Release. [Related pubchem assays: 1663 (Primary HTS), 1678 (Summary of Project)]; format: functional
[3] = biological target: Luciferin 4-monooxygenase (Photinus pyralis, UniProt P08659); test: inhibition of purified Photinus pyralis luciferase – biochemical, luminescence, dose response (AID 1891)
Melanocortin receptor 4 [4] = biological target: T1, Melanocortin receptor 4 (Homo sapiens, UniProt P32245); test: inhibitors of MC4R cAMP signaling – cell-based, TR-FRET, biased antagonists, dose response (AID 602298); format: functional;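 further: antagonist potency against agonist-stimulated cAMP production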
[5] = cAMP pathway inhibition in counterscreen cell line – TR-FRET cAMP detection, counter-screen for MC4R biased antagonist project, dose response (AID 602305); format: functional, cell-based;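 further: U2OS cells stimulated with forskolin near its EC80 as the cAMP inducer; potency is for inhibition of forskolin-stimulated cAMP signaling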
Melanocortin receptor 4 [6] = biological target: T1, Melanocortin receptor 4; format: functional, cell-based
[7] = biological target: 72 kDa type IV collagenase (Homo sapiens, UniProt P08253); test: Dose Response validation of uHTS RPN11 inhibitor hits using a MMP-2 Fluorescence assay.; format: functional
[8] = viability loss in HeLa cells – cytotoxicity control for MgcRacGAP inhibitor project, dose response (AID 624300); format: functional
[9] = biological target: T2, Rac GTPase-activating protein 1 (Homo sapiens, UniProt Q9H0H5); test: blockers of MgcRacGAP-driven Rac1 GTP hydrolysis – biochemical, ADP Hunter fluorescence, primary and confirmatory, confirmation (AID 624330); format: functional
T2 sequence (Q9H0H5 whole entry): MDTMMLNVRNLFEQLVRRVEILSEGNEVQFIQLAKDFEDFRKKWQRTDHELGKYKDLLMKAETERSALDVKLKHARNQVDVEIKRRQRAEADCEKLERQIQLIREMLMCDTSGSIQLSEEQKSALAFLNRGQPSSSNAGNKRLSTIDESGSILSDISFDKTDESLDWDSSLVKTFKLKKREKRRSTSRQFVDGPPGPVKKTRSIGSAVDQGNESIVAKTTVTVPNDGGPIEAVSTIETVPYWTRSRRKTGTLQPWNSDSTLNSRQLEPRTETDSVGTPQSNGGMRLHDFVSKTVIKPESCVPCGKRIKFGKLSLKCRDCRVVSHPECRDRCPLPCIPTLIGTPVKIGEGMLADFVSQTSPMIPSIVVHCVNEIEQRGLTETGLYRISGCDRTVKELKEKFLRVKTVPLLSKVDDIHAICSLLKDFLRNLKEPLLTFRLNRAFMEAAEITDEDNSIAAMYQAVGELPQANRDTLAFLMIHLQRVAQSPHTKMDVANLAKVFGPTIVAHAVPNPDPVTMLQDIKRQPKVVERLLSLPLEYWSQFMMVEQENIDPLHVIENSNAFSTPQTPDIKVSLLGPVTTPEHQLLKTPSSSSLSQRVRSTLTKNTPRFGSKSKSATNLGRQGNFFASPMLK

Prothrombin = Prothrombin (Bos taurus, UniProt P00735); test: thrombin protease inhibitors – biochemical, fluorescence polarization, uHTS hits, dose response (AID 602369); format: functional
[10] = biological target: 26S proteasome non-ATPase regulatory subunit 14 (Homo sapiens, UniProt O00487); test: inhibition of proteasome subunit RPN11 – biochemical, fluorescence polarization, uHTS hits, confirmation (AID 602368); format: functional
[11] = biological target: Heat shock protein HSP 90-alpha (Homo sapiens, UniProt P07900); format: functional, organism-based
[12] = biological target: T3, DNA repair protein RAD52 homolog (Homo sapiens, UniProt P43351); format: functional, biochemical
T3 sequence (P43351 whole entry): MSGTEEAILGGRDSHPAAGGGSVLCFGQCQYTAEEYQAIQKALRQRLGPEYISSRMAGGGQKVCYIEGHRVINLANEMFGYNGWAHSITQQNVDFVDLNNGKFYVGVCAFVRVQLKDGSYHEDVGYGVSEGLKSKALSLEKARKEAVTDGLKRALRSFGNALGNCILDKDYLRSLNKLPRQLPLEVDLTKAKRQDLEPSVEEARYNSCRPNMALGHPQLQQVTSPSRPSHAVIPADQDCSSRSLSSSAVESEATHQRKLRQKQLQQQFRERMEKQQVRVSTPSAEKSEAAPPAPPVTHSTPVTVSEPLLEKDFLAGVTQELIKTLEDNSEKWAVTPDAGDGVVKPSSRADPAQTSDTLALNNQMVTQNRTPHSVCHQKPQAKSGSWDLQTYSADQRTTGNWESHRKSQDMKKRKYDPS

[13] = biological target: T4, Sentrin-specific protease 6 (Homo sapiens, UniProt Q9GZR1); test: inhibition of human SENP6 catalytic domain – biochemical, luminescence, set 2, SAR follow-up (AID 588598); format: functional
T4 sequence (Q9GZR1 whole entry): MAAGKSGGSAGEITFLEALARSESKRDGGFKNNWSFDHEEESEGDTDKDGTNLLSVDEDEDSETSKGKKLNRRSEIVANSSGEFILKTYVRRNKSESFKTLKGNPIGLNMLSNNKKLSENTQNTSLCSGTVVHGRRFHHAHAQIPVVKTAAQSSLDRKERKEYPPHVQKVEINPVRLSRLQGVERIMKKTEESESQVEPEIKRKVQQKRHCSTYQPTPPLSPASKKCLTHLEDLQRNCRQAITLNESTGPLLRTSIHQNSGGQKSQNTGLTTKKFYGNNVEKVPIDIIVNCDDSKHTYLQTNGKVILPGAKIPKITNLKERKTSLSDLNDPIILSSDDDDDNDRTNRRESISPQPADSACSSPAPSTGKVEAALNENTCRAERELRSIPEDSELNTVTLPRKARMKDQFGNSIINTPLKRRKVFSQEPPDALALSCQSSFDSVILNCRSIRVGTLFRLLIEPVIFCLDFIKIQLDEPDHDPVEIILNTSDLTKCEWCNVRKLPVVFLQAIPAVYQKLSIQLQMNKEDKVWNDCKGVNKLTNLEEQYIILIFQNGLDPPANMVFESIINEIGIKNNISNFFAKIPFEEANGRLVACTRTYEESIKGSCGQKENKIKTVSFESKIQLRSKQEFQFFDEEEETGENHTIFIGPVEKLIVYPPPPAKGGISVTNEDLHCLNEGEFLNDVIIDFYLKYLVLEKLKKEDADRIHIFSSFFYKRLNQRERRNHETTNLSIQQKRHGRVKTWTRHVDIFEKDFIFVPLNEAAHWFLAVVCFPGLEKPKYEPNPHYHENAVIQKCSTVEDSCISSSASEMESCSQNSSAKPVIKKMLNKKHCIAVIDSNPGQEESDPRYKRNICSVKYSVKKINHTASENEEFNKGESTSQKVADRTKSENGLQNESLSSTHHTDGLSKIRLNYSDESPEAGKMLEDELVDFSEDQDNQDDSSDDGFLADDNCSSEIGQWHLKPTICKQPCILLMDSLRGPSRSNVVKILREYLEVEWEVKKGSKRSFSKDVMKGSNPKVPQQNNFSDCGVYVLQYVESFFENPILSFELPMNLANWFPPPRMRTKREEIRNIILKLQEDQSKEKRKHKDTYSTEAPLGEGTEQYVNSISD

[14] = biological target: T5, Sentrin-specific protease 8 (Homo sapiens, UniProt Q96LD8); test: inhibition of sentrin protease 8 – biochemical, luminescence, set 2, SAR follow-up (AID 588601); format: functional
T5 sequence (Q96LD8 whole entry): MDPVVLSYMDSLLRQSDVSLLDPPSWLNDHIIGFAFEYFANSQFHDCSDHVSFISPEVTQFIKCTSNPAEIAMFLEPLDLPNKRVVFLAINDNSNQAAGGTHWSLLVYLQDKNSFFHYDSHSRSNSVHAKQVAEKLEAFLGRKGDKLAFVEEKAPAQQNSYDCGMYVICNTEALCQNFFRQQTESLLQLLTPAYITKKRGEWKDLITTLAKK

[15] = biological target: T6, Sentrin-specific protease 7 (Homo sapiens, UniProt Q9BQF6); test: inhibition of human SENP7 cleavage activity – biochemical, luminescence, set 2, SAR follow-up (AID 588600); format: functional
T6 sequence (Q9BQF6 whole entry): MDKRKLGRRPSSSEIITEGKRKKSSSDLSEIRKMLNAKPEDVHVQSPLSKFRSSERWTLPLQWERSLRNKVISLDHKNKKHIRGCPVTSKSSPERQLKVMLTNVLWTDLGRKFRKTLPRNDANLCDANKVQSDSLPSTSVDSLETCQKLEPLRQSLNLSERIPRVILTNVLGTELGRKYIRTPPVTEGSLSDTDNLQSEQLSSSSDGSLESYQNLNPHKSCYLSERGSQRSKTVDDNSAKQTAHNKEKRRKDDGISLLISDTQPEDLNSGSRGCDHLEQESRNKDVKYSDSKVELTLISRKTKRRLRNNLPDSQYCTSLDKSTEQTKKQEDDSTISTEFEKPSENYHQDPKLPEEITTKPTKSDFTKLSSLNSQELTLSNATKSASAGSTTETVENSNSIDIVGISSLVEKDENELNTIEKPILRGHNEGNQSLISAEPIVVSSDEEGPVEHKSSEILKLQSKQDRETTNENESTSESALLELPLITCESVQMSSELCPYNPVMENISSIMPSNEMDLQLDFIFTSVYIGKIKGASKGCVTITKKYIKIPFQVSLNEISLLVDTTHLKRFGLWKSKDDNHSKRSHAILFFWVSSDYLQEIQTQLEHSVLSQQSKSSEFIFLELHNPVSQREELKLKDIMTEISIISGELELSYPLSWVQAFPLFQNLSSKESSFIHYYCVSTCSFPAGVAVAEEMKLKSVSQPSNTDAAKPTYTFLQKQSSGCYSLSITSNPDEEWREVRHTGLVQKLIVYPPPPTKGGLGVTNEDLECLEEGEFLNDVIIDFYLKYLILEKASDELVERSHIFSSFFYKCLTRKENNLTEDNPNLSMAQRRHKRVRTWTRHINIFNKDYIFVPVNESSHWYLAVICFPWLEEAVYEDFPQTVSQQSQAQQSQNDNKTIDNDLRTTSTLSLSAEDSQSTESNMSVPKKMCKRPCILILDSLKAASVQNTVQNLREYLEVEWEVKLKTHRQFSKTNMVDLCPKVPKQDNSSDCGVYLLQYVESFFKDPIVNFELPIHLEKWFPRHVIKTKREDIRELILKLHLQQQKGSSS

Caspase-3 = biological target: T7, Caspase-3 (Homo sapiens, UniProt P42574); test: inhibition of recombinant caspase-3 activity – biochemical, luminescence, set 2, selectivity assay for SENP protease inhibitor project, SAR follow-up (AID 588599); format: functional
T7 sequence (P42574 whole entry): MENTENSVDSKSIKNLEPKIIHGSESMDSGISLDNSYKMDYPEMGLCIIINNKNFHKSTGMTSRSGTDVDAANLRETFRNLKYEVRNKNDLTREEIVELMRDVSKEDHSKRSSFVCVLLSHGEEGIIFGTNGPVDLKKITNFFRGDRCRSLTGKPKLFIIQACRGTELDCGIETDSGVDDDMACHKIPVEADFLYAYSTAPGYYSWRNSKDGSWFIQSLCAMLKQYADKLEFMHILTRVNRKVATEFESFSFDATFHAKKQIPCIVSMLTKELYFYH

T1 sequence (P32245 whole entry): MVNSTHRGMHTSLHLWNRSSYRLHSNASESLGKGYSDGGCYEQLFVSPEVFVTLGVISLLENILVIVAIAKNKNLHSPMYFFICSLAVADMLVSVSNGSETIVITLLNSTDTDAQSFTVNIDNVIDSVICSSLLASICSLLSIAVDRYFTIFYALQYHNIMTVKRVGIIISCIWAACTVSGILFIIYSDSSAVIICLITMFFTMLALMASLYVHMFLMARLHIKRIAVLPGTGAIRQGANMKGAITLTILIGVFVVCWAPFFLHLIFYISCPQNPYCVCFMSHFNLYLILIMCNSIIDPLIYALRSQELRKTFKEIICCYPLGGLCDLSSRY
Sequence of 26S proteasome non-ATPase regulatory subunit 14 (O00487 whole entry): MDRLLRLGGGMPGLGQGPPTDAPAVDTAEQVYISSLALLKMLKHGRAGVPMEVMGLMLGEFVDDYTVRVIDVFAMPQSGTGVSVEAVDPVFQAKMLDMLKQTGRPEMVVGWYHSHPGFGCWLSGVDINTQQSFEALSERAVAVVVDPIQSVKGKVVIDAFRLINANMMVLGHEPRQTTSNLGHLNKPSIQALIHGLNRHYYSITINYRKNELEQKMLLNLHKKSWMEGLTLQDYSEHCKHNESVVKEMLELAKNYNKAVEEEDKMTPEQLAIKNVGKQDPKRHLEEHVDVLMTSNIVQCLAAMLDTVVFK
Sequence of Luciferin 4-monooxygenase (P08659 whole entry): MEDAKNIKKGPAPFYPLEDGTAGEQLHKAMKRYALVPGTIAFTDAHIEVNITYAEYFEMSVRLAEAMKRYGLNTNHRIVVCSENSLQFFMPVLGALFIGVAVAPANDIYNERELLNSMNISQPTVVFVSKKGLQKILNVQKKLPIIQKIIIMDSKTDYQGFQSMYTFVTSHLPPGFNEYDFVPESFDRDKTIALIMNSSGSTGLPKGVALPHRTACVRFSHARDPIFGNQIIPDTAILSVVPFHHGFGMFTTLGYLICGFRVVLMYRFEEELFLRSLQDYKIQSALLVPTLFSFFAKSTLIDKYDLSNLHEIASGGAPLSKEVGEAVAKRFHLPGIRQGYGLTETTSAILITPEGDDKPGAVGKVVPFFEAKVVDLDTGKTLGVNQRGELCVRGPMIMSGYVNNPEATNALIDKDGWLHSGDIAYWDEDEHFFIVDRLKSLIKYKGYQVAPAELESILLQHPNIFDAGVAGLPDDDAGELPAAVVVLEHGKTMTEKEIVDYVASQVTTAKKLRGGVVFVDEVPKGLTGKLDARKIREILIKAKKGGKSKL
Sequence of 72 kDa type IV collagenase (P08253 whole entry): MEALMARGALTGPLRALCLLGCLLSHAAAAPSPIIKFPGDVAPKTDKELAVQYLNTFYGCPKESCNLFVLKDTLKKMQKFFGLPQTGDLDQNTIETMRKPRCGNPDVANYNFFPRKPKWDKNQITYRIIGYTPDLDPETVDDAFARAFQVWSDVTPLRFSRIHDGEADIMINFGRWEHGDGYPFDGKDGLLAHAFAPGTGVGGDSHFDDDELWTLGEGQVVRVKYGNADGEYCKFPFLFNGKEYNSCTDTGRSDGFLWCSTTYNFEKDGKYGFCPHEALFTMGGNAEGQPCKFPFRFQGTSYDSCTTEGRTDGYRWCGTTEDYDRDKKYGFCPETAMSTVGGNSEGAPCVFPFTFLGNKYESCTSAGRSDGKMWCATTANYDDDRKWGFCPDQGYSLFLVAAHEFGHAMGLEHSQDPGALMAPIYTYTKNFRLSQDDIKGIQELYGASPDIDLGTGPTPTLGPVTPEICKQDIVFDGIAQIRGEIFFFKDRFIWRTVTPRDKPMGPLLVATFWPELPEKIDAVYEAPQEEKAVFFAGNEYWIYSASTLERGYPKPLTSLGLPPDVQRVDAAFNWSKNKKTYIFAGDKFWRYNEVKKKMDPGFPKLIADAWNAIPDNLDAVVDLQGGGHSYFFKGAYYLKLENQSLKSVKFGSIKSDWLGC

| IC50 [13] | IC50 [15] | IC50 (Caspase-3) | Structure (SMILES) | IC50 (Melanocortin receptor 4 [4]) | IC50 [5] | IC50 [14] | also measured |
| --- | --- | --- | --- | --- | --- | --- | --- |
| – | – | – | COC(=O)c1cc(S(=O)(=O)NCCc2ccc(SC)cc2)c[nH]1 | – | – | – | AC50 [1]: 112 µM (active); EC50 [2]: > 112 µM (not active); EC50 [3]: > 112 µM (not active) |
| – | – | – | CCOC(=O)c1sc(NC(=O)CCN2CCN(CC)CC2)c(C(=O)OCC)c1C | > 64.6 µM (inactive) | > 64.6 µM (inactive) | – | – |
| – | – | – | CCCCCCCCCCCCCCCC[N+](C)(C)Cc1ccc(F)cc1 | 13.7 µM (inactive) | 59.8 µM (inactive) | – | EC50 (Melanocortin receptor 4 [6]): > 89.2 µM (inactive); IC50 [7]: 91.8 µM (active); CC50 [8]: 15.7 µM (active); IC50 [9]: 83.4 µM (active); IC50 (Prothrombin): 37.4 µM (active); IC50 [10]: 61.1 µM (active); AC50 [11]: 4.51 µM (active); AC50 [12]: 5.28 µM (active) |
| > 99 µM (inactive) | > 99 µM (inactive) | > 99 µM (inactive) | COc1ccc(/C=C(/C#N)c2nc(-c3ccccc3C)no2)cc1O | – | – | > 99 µM (inactive) | – |
| > 99 µM (inactive) | > 99 µM (inactive) | > 99 µM (inactive) | Cc1[nH]c2ccccc2c1C(=O)C(=O)NCCn1ccc2ccccc21 | – | – | > 99 µM (inactive) | – |

— ChEMBL document CHEMBL1201862, “PubChem BioAssay data set” (2004)
